Measured values taken from US10654884B2 (Vitae Pharmaceuticals, Inc., priority 2014, dated 2020).

Columns and labels:
human CD73 = target: T1, human CD73 (Homo sapiens, UniProt P21589); assay: Inhibition of 5′-Nucleotidase Activity of CD73 (Assay 1); format: biochemical; conditions: human CD73 4 ng/ml, 50 μM CMP, 20 min at RT, malachite green readout; read-out: Assay 1: IC50, inhibition of 5′-nucleotidase activity of CD73
T1 construct: purchased R&D Systems 5795-EN-010
T1 sequence (P21589 27-549): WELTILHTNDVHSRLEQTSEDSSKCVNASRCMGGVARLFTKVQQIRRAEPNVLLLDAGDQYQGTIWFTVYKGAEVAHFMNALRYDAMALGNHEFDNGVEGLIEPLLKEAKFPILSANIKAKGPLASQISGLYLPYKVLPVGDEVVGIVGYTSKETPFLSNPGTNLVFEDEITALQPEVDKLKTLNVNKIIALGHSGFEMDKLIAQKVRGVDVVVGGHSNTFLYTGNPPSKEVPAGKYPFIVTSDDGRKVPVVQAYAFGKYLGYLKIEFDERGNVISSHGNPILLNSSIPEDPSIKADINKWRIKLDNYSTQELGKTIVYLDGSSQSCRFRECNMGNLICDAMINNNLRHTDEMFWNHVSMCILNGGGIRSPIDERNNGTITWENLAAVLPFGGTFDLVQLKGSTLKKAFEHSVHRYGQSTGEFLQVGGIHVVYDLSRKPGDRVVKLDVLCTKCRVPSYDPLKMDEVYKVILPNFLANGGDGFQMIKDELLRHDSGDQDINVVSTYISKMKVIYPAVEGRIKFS
Outline: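 Human CD73 (4 ng/ml final) was incubated with 50 μM CMP in 25 mM Tris-HCl pH 7.4, 0.005% Brij-35 for 20 min at RT. Reactions were stopped with malachite green reagent and absorbance was read at 620 nm. IC50 came from a 4-parameter logistic fit.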

[1] = target: T2, CD73 on U138 neuroglioma cells (Homo sapiens, UniProt P21589); assay: Inhibition of Ecto-5′-Nucleotidase Activity in U138 Neuroglioma Cells (Assay 2); format: cell-based; conditions: 50 μM CMP, 2 hr at 37° C., malachite green readout, read-out: Assay 2: IC50, inhibition of ecto-5′-nucleotidase activity in U138 neuroglioma cells
T2 construct: U138 neuroglioma cells, which express CD73 on their surface; endogenous in cells; host or cells: U138 neuroglioma cells (ATCC)
T2 sequence (P21589 27-549): T1 sequence (P21589 27-549)
Procedure: Inhibition of Ecto-5′-Nucleotidase Activity in U138 Neuroglioma Cells (Assay 2)
U138 cells were obtained from the American Type Culture Collection (ATCC) (Manassas, Va.), and cultured in complete growth media (DMEM, 10% FBS, 1 mM L-glutamine, 100 U penicillin-streptomycin) at 37° C., 5% CO2. The day before the experiment, cells were seeded at 2,500 cells/well in 100 μL of complete media into 96-well plates. Cells were washed twice with 200 μL of assay buffer (20 mM HEPES, pH 7.4, 137 mM NaCl, 5.4 mM KCl, 1.3 mM CaCl2, 4.2 mM NaHCO3, 1 mg/mL glucose) to remove residual inorganic phosphate. After washing, assays contained serial dilutions of test compounds and 50 μM of cytidine-5′-monophosphate (CMP) in a total volume of 200 μL of assay buffer, with a final DMSO concentration ≤0.1%. After 2 hr at 37° C., 5% CO2, 100 μL of supernatant was removed from the cells and the concentration of inorganic phosphate was determined using malachite green reagent. IC50 values for test compounds were determined from nonlinear regression fits of the data using XLfit (IDBS).

SMILES | IC50 (human CD73) [nM] | IC50 [1] [nM]
CCOC(=O)[C@@H](OC[C@H]1O[C@@H](n2cnc3c(NCc4ccccc4)nc(Cl)nc32)[C@H](O)[C@@H]1O)P(=O)(O)O (single isomer, unassigned) [Example 24a] | 100 to 1000 | 100 to 1000
CCOC(=O)[C@H](OC[C@H]1O[C@@H](n2cnc3c(NC4CCCC4)nc(Cl)nc32)[C@H](O)[C@@H]1O)P(=O)(O)O (single isomer, unassigned) [Example 25] | < 100 | < 100
CCOC(=O)[C@@H](OC[C@H]1O[C@@H](n2cnc3c(NC4CCCC4)nc(Cl)nc32)[C@H](O)[C@@H]1O)P(=O)(O)O (single isomer, unassigned) [Example 25a] | < 100 | < 100
CCOC(=O)[C@H](OC[C@H]1O[C@@H](n2cnc3c(-n4ccnc4)nc(Cl)nc32)[C@H](O)[C@@H]1O)P(=O)(O)O (single isomer, unassigned) [Example 26] | < 100 | < 100
CCOC(=O)[C@@H](OC[C@H]1O[C@@H](n2cnc3c(-n4ccnc4)nc(Cl)nc32)[C@H](O)[C@@H]1O)P(=O)(O)O (single isomer, unassigned) [Example 26a] | 100 to 1000 | 100 to 1000
CCOC(=O)[C@H](OC[C@H]1O[C@@H](n2cnc3c(OCC)nc(Cl)nc32)[C@H](O)[C@@H]1O)P(=O)(O)O (single isomer, unassigned) [Example 27] | < 100 | 100 to 1000
CCOC(=O)[C@@H](OC[C@H]1O[C@@H](n2cnc3c(OCC)nc(Cl)nc32)[C@H](O)[C@@H]1O)P(=O)(O)O (single isomer, unassigned) [Example 27a] | 100 to 1000 | 100 to 1000
CCOC(=O)[C@H](OC[C@H]1O[C@@H](n2cnc3c(C)nc(Cl)nc32)[C@H](O)[C@@H]1O)P(=O)(O)O (single isomer, unassigned) [Example 28] | < 100 | < 100
CCOC(=O)[C@@H](OC[C@H]1O[C@@H](n2cnc3c(C)nc(Cl)nc32)[C@H](O)[C@@H]1O)P(=O)(O)O (single isomer, unassigned) [Example 28a] | 100 to 1000 | > 1000
CCOC(=O)[C@H](OC[C@H]1O[C@@H](n2ccc(=O)n(C)c2=O)[C@H](O)[C@@H]1O)P(=O)(O)O (single isomer, unassigned) [Example 30] | 100 to 1000 | > 1000
CCNC(=O)[C@H](OC[C@H]1O[C@@H](n2cnc3c(NCC)nc(Cl)nc32)[C@H](O)[C@@H]1O)P(=O)(O)O (single isomer, unassigned) [Example 34] | < 100 | 100 to 1000
CCNC(=O)[C@@H](OC[C@H]1O[C@@H](n2cnc3c(NCC)nc(Cl)nc32)[C@H](O)[C@@H]1O)P(=O)(O)O (single isomer, unassigned) [Example 34a] | < 100 | < 100
CCOC(=O)[C@H](OC[C@H]1O[C@@H](n2cnc3c(NC(=O)c4ccccc4)nc(Cl)nc32)[C@H](O)[C@@H]1O)P(=O)(O)O (single isomer, unassigned) [Example 36] | < 100 | 100 to 1000
CCOC(=O)[C@@H](OC[C@H]1O[C@@H](n2cnc3c(NC(=O)c4ccccc4)nc(Cl)nc32)[C@H](O)[C@@H]1O)P(=O)(O)O (single isomer, unassigned) [Example 36a] | 100 to 1000 | > 1000
CCOC(=O)[C@H](OC[C@@H]1O[C@H](n2cnc3c(N)nc(C)nc32)[C@@H](O)[C@H]1O)P(=O)(O)O (single isomer, unassigned) [Example 37] | < 100 | 100 to 1000
CCOC(=O)[C@H](OC[C@H]1O[C@@H](n2cnc3c(N)nc(Cc4ccccc4)nc32)[C@H](O)[C@@H]1O)P(=O)(O)O (single isomer, unassigned) [Example 39] | < 100 | 100 to 1000

SMILES | IC50 (human CD73) [nM] | IC50 [1] [nM]
CCOC(=O)[C@@H](OC[C@H]1O[C@@H](n2cnc3c(N)nc(Cc4ccccc4)nc32)[C@H](O)[C@@H]1O)P(=O)(O)O (single isomer, unassigned) [Example 39a] | > 1000 | > 1000
CCOC(=O)[C@H](OC[C@H]1O[C@@H](n2cnc3c(N)nc(-c4ccccc4)nc32)[C@H](O)[C@@H]1O)P(=O)(O)O (single isomer, unassigned) [Example 40] | < 100 | 100 to 1000
CCOC(=O)[C@H](OC[C@H]1O[C@@H](n2cnc3c(N)nc(-c4cc(F)cc(F)c4)nc32)[C@H](O)[C@@H]1O)P(=O)(O)O (single isomer, unassigned) [Example 41] | 100 to 1000 | > 1000
CCOC(=O)[C@H](OC[C@H]1O[C@@H](n2cnc3c(N)nc(C(F)(F)F)nc32)[C@H](O)[C@@H]1O)P(=O)(O)O (single isomer, unassigned) [Example 42] | < 100 | 100 to 1000
CCOC(=O)[C@H](OC[C@H]1O[C@@H](n2cnc3c(N)nc(SCC)nc32)[C@H](O)[C@@H]1O)P(=O)(O)O (single isomer, unassigned) [Example 44] | > 1000 | > 1000
CCOC(=O)[C@H](OC[C@H]1O[C@@H](n2cnc3c(N)nc(C#N)nc32)[C@H](O)[C@@H]1O)P(=O)(O)O (single isomer, unassigned) [Example 45] | < 100 | < 100
CCOC(=O)[C@@H](OC[C@H]1O[C@@H](n2cnc3c(N)nc(C#N)nc32)[C@H](O)[C@@H]1O)P(=O)(O)O (single isomer, unassigned) [Example 45a] | 100 to 1000 | 100 to 1000
CCOC(=O)[C@H](OC[C@H]1O[C@@H](n2cnc3c(N)nc(CC(C)C)nc32)[C@H](O)[C@@H]1O)P(=O)(O)O (single isomer, unassigned) [Example 46] | 100 to 1000 | 100 to 1000
CCOC(=O)[C@H](OC[C@H]1O[C@@H](n2cnc3c(N)nc(-c4ncco4)nc32)[C@H](O)[C@@H]1O)P(=O)(O)O (single isomer, unassigned) [Example 49] | < 100 | 100 to 1000
CCOC(=O)[C@@H](OC[C@H]1O[C@@H](n2cnc3c(N)nc(-c4ncco4)nc32)[C@H](O)[C@@H]1O)P(=O)(O)O (single isomer, unassigned) [Example 49a] | 100 to 1000 | > 1000
CCOC(=O)[C@H](OC[C@H]1O[C@@H](n2cnc3c(N)nc(C4CC4)nc32)[C@H](O)[C@@H]1O)P(=O)(O)O (single isomer, unassigned) [Example 50] | 100 to 1000 | > 1000
CCOC(=O)[C@H](OC[C@H]1O[C@@H](n2cnc3c(N)nc([C@@H]4NCCO4)nc32)[C@H](O)[C@@H]1O)P(=O)(O)O (single isomer, unassigned) [Example 51] | 100 to 1000 | > 1000
CCOC(=O)[C@H](OC[C@H]1O[C@@H](n2cnc3c(N)nc([C@H]4NCCO4)nc32)[C@H](O)[C@@H]1O)P(=O)(O)O (single isomer, unassigned) [Example 51a] | 100 to 1000 | > 1000
CCOC(=O)[C@@H](OC[C@H]1O[C@@H](n2cnc3c(N)nc(F)nc32)[C@H](O)[C@@H]1O)P(=O)(O)O (single isomer, unassigned) [Example 52] | < 100 | 100 to 1000
CCOC(=O)[C@H](OC[C@H]1O[C@@H](n2cnc3c(N)nc(F)nc32)[C@H](O)[C@@H]1O)P(=O)(O)O (single isomer, unassigned) [Example 52a] | 100 to 1000 | > 1000
